Patent US20050069887A1, “Dna synthesis promoters dna polymerase-associated factors and utilization thereof” (priority 2001, published 2005)
“And” between values parts separate entries of the source, which are not always exact repeats. Equal values may be shown once.

Target: KOD DNA polymerase (Thermococcus kodakarensis, UniProt P77933, DEL407-766/DEL853-1389)
Experiment: Long PCR using KOD DNA polymerase (Examples 2-5 to 2-8)
Assay type: biochemical, Thermococcus kodakaraensis KOD1
Description: Oxalate ion and betaine were investigated for their synergistic effectiveness in long PCR amplification of a target DNA of more than 20 kb derived from the human genome using KOD DNA polymerase, successful amplification of which using α-type enzyme alone has not been reported. Potassium oxalate was added to the PCR buffer supplied with KOD-plus (TOYOBO CO.,LTD.) to attain a final concentration of 2 mM. Also used were 0.4 mM dNTPs, 0.3 μM of a pair of primers of SEQ ID Nos:20 and 21, and 2.0 U KOD DNA polymerase. 200 ng of genomic DNA derived from human cell line K562 was used as a template. This reaction mixture was subjected to PCR by using GeneAmp2400 (PE Applied Biosystems) to investigate the influence on the PCR results of varying the concentration of betaine. The PCR conditions were as follows: 1 preliminary reaction of 94° C. for 2 minutes; 5 cycles of 98° C. for 10 seconds and 74° C. for 18 minutes; 5 cycles of 98° C. for 10 seconds and 72° C. for 18 minutes; 5 cycles of 98° C. for 10 seconds and 70° C. for 18 minutes; 25 cycles of 98° C. for 10 second and 68° C. for 18 minutes; and 1 additional reaction of 68° C. for 7 minutes.
Oxalate ion and betaine were investigated for their synergistic effectiveness in long PCR amplification of a target DNA of more than 20 kb derived from the human genome using KOD DNA polymerase, successful amplification of which using α-type enzyme alone has not been reported. Betaine was added to the PCR buffer supplied with KOD-plus (TOYOBO CO., LTD.) to attain a final concentration of 1.5 M. Also used were 2.0 U KOD DNA polymerase, 0.4 mM dNTPs and 0.3 μM of a pair of primers of SEQ ID Nos:22 and 23 respectively for the PCR amplification of 22 kb DNA in tPA gene, and SEQ ID Nos:22 and 24 respectively for the PCR amplification of tPA 24 kb DNA. 200 ng of genomic DNA derived from human cell line K562 was used as a template. This reaction mixture was subjected to PCR by using GeneAmp2400 (PE Applied Biosystems) to investigate the influence on the PCR results of varying the concentration of potassium oxalate. The PCR conditions were as follows: 1 preliminary reaction of 94° C. for 2 minutes; 5 cycles of 98° C. for 10 seconds and 74° C. for 18 minutes; 5 cycles of 98° C. for 10 seconds and 72° C. for 18 minutes; 5 cycles of 98° C. for 10 seconds and 70° C. for 18 minutes; 25 cycles of 98° C. for 10 seconds and 68° C. of 18 minutes; and 1 additional reaction of 68° C. for 7 minutes.
Under the aforementioned conditions in which oxalate ions and betaine are present, the effect of hot start PCR using antibodies in long PCR using KOD DNA polymerase was investigated. Potassium oxalate and betaine were added to the PCR buffer supplied with KOD-plus (TOYOBO CO.LTD.) to attain a final oxalate concentration of 2 mM and a final betaine concentration of 1.5 M. Also used were 2.0 U KOD DNA polymerase, 0.4 mM dNTPs and 0.3 μM of a pair of primers of SEQ ID Nos:22 and 25 for PCR amplification of tPA 12 kb DNA; SEQ ID Nos:22 and 26 for PCR amplification of tPA 15 kb DNA; SEQ ID Nos:22 and 27 for PCR amplification of tPA 18 kb DNA; SEQ ID Nos:22 and 23 for PCR amplification of tPA 22 kb DNA; SEQ ID Nos:22 and 24 for PCR amplification of tPA 24 kb DNA; and SEQ ID Nos:28 and 29 for PCR amplification of β-globin 17.5 kb DNA. 200 ng of genomic DNA derived from human cell line K562 was used as a template. […]

[1] = 2 mM potassium oxalate, target of more than 20 kb, FIG. 15

KOD DNA polymerase, sequence (P77933 other isoform, or with tags, fused parts or gaps DEL407-766/DEL853-1389): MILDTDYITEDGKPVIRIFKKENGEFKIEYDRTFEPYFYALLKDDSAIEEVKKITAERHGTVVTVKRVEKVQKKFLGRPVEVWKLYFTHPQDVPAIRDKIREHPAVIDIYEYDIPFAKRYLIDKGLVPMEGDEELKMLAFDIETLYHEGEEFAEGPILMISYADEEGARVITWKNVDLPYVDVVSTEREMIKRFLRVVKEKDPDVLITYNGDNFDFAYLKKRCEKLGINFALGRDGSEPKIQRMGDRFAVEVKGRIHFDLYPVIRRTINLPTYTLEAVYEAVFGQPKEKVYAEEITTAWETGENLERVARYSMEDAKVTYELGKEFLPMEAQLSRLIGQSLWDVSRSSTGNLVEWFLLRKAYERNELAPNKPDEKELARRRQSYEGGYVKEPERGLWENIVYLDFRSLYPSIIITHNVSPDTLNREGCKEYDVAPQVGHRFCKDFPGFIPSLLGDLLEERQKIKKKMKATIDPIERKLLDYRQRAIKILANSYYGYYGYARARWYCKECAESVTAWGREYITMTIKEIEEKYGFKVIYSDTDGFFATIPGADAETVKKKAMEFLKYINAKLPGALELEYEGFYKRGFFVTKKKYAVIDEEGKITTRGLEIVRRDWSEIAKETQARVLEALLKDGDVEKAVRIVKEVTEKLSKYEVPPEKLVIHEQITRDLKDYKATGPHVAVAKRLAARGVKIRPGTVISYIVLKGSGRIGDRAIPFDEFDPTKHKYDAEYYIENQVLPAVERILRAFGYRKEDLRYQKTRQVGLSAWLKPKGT

| SMILES | betaine concentration at which sufficient amplification of both target DNAs was observed (2 mM potassium oxalate, tPA 9 kb and 12 kb, FIG. 18) | betaine concentration at which amplification of the target DNA was not observed [1] [M] | betaine concentration at which sufficient amplification was found [1] | potassium oxalate concentration at which amplification was confirmed (1.5 M betaine, tPA 22 kb DNA, FIG. 16) [mM] | potassium oxalate concentration at which slight amplification was observed (1.5 M betaine, tPA 24 kb DNA, FIG. 16) |
| --- | --- | --- | --- | --- | --- |
| C[N+](C)(C)CC(=O)[O-] [betaine, trimethylglycine] | 1 M and 1.5 M | ≤ 1.2 | 1.4 M and 1.6 M |  |  |
| O=C([O-])C(=O)[O-].[K+].[K+] [potassium oxalate] |  |  |  | 2 | 1.5 mM and 2.0 mM |
